Test results as given in patent US20210379021A1 (Race Oncology Ltd., priority 2018, published 2021).
Counter-ions that a name gives are not always drawn. Like-named read-outs stand apart in the source and are kept apart here.

Columns and labels:
[1] = Assay of reconstituted bisantrene dihydrochloride diluted in i.v. bag, with or without 0.2-μm filter, glass vs plastic sample vials; assay type: physicochemical
[2] = Filtration of 40 mg/mL stock mixture, content by HPLC; assay type: physicochemical; conditions: 5-μm, 1.2-μm and 0.2-μm filters
Procedure: Finished vials are sealed under nitrogen and partial vacuum for storage. Storage of the vials is typically at 18° C. to 25° C.

[3] = tested on: colon 26, Lewis lung, Ridgway osteosarcoma, B16, Lieberman plasma cell, P388 or L1210 cancer cells; conditions: cited from earlier work
tumor cells = conditions: cited from earlier work
[4] = high doses; cited from earlier work
[5] = tested on: P-388 leukemia and B-16 melanoma; conditions: mouse, in vivo; cited from earlier work
Human tumor cells = conditions: cited from earlier work
[6] = cited from earlier work
L-1210 leukemia cells = conditions: cited from earlier work
calf thymus DNA = conditions: in vitro; cited from earlier work
Human Platelets = conditions: cited from earlier work
[7] = in vivo; cited from earlier work
plasma proteins = conditions: cited from earlier work
[8] = cited from earlier work; remark: listed apart in the source
[9] = cited from earlier work; remark: listed apart in the source
[10] = cited from earlier work; remark: listed apart in the source
[11] = in vivo; cited from earlier work; remark: listed apart in the source
DNA = conditions: hypoxic conditions; cited from earlier work
[12] = in vivo; cited from earlier work; remark: listed apart in the source
[13] = tested on: hepatic microsomal enzymes; conditions: in vitro; specific metabolites not identified; cited from earlier work
[14] = cited from earlier work; remark: listed apart in the source

C(=N\NC1=NCCN1)/c1c2ccccc2c(/C=N/NC2=NCCN2)c2ccccc12 [bisantrene, 9,10-anthracenedicarboxaldehyde-bis [(4,5-dihydro-1H-imidazole-2-yl) hydrazine] dihydrochloride]
assay after passage through 0.2-μm filter versus i.v. bag assay ([1]; sample collected in glass vials): approximately 5 % lower | assay after passage through 0.2-μm filter versus i.v. bag assay ([1]; sample collected in plastic vials): approximately matched | assay of fully diluted drug in the i.v. bag versus reconstituted drug in the finished vial ([1]; samples collected in glass vials): approximately 5 % lower | assay of fully diluted drug in the i.v. bag versus reconstituted drug in the finished vial ([1]; samples collected in plastic vials): no reduction | effect of removal of particulates on content in solution [2]: does not diminish | activity in cancer models ([3]; intravenously (i.v.), intraperitoneally (i.p.), or subcutaneously (s.c.)): effective | activity in cancer models ([3]; orally): inactive | activity in clonogenic assays (tumor cells; breast, small cell lung, large cell lung, squamous cell lung, ovarian, pancreatic, renal, adrenal, head and neck, sarcoma, gastric, lymphoma and melanoma tumor cells): Activity | cross resistance with Adriamycin and mitoxantrone (tumor cells): lack of cross resistance | activity in clonogenic assays (tumor cells; colorectal cancer): not in colorectal cancer | toxicities observed [4]: leukopenia, anorexia, diarrhea, injection site necrosis, enterocolitis, muscle degeneration, and pulmonary edema | antitumor activity [5]: antitumor activity | sensitivity of human tumor cells (Human tumor cells; breast, ovarian, renal, small cell and non-small cell lung cancer, lymphoma, acute myelogenous leukemia, melanoma, gastric, adrenal, head and neck cancer): sensitive | activity in human colon cancer (Human tumor cells; tested in vitro): inactive | activity in refractory malignant melanoma ([6]; Phase II): inactive | activity in phase I clinical trials ([6]; hepatocellular cancer and hypernephroma (one patient each)): showed activity | activity in phase I clinical trials ([6]; lymphoma, myeloma, melanoma, renal cancer, tumors of the bladder and lung): showed activity | activity in Phase II clinical trials ([6]; patients with metastatic breast cancer): active | activity in human colon cancer ([6]; tested in vivo (Phase II, advanced colorectal cancer)): inactive | activity in phase I clinical trials ([6]; two other hypernephroma patients, five-day schedule): activity was also observed | DNA strand breaks typical of inhibition of DNA topoisomerase II enzymes (L-1210 leukemia cells): induce protein-associated DNA strand breaks | DNA supercoiling indicative of DNA intercalation (L-1210 leukemia cells): induce altered DNA supercoiling | shape of DNA dissociation curves (calf thymus DNA): biphasic | effect on platelet aggregation (Human Platelets): inhibit platelet aggregation | cardiotoxicity [7]: not cardiotoxic | bound to plasma proteins (plasma proteins): More than 95% | dose excreted in the urine ([8]; in vivo): Less than 7% | route by which the majority of the drug is eliminated ([8]; in vivo): hepatobiliary route | area under the plasma concentration×time curve ([8]; intravenous dose 260 mg/m^2): 4400 µg·h/mL | area under the plasma concentration×time curve ([8]; intravenous dose 340 mg/m^2): 5700 µg·h/mL | beta phase of elimination ([8]; plasma): approximately 1.5 hours | initial distributive phase of elimination ([8]; plasma): 6 min | maximally tolerated dose ([9]; daily×5, repeat every 4 week (Spiegel et al. 1982)): 80 mg/m^2 | maximally tolerated dose ([9]; monthly (every 3-4 week) (Von Hoff et al. 1981b)): 260 mg/m^2 | maximally tolerated dose ([9]; monthly (every 3-4 week), patients with poor bone marrow reserve): 240 mg/mg^2 | maximally tolerated dose ([9]; weekly×3 (Alberts et al. 1982)): 200 mg/m^2 | maximally tolerated dose ([9]; weekly×3, patients with poor bone marrow reserve (Alberts et al. 1982)): 150 mg/mg^2 | maximally tolerated dose ([9]; weekly×3, repeat every 4-5 week (Yap et al. 1982)): 150 mg/m^2 | toxicity for which the Phase II study was terminated ([10]; heavily pretreated patients with metastatic breast cancer): significant local toxicity | alopecia (hair loss) compared with doxorubicin ([10]; human, in vivo): less intense | anemia and cumulative myelosuppressive toxic effects ([10]; human, in vivo): not encountered | cardiotoxicity in the clinic compared with other agents in its class ([10]; human, in vivo): less cardiotoxicity | electrocardiographic changes while receiving the drug ([10]; human, in vivo): No patients experienced electrocardiographic changes | fever ([10]; human, in vivo): mild fever | major dose-limiting toxic effect ([10]; human, in vivo): leukopenia | nausea or vomiting ([10]; human, in vivo): very little nausea or vomiting | patients reporting malaise ([10]; human, in vivo): up to one-half of patients | patients with anaphylactoid reactions following infusion ([10]; human, in vivo): Up to 10% | phlebitis along peripheral veins used for drug infusion ([10]; human, in vivo): severe phlebitis | radioangiocardiographic monitoring of cardiac function ([10]; human, in vivo): no decrease in ejection fraction | recovery from myelosuppression ([10]; human, in vivo): ≤ 19 days | thrombocytopenia ([10]; human, in vivo): mild | nadir for myelosuppression ([10]; schedule of every 3 to 4 weeks): 9 days | precipitation of drug in the body [11]: precipitates in the body have been observed | cytotoxicity and DNA strand breaks (DNA): reduced | brain levels [12]: extremely low | distribution to lymph nodes and bone marrow [12]: did distribute | tissues with the highest concentration (in descending order) [12]: kidney, liver, gallbladder, spleen, lung, and heart | metabolism by hepatic microsomal enzymes [13]: substrate

O=C([O-])O.[Na+] [sodium bicarbonate]
effect of local injection on bisantrene extravasation necrosis [14]: blocked
